Tests used:
HSPs in RPMI-8226 cells = assay: DI-MRM relative quantification of HSPs after 17-DMAG (Example 2); format: cell-based, human; conditions: RPMI-8226, 100 nM
Method: Synthesis and DI MRM of Standard Peptides. Standard peptides were synthesized and characterized as described previously (Remily-Wood et al., Proteomics Clin. Appl. 5:383-96 (2011)). An automated chip-based nanoelectrospray ion source, (NanoMate100, Advion BioSciences, Ithaca, N.Y.), was mounted on a triple quadrupole mass spectrometer (TSQ Vantage, Thermo, San Jose, Calif.). […] (SEQ ID NO:17) were diluted to 1 μM in 50% aqueous ACN with 0.1% formic acid. For synthetic peptide infusion, the spray voltage was tuned between 1.5 and 1.9 kV for stable ion signal. The gas pressure was set to 0.3 psi. Data were acquired at 20 ms per transition for 2 minutes using m/z 0.002 scan widths. The quadrupole resolution values were modulated from 0.2 to 0.7.
Standard Protein DI-MRM. As described below, a dilution series of BSA digest was created in 50% aqueous acetonitrile with 0.1% formic acid spiked with five synthetic peptide standards (20 nM). In DI-MRM, the spray voltage was set to 1.6 kV, and the gas pressure was set to 0.3 psi. Peptide selection was performed using Q1=0.4; fragment ion selection was performed using Q3=0.7. Transitions (n=36) were monitored for 20 ms each with scan width set to 0.002; data were acquired for 5 minutes.
Cell Culture, Lysis, and HSP Sample Preparation for Mass Spectrometry. RPMI-8226 and 8226/LR5 cells were maintained as previously described (Bellamy et al., Cancer Res. 51:995-1002 (1991); Remily-Wood et al., Proteomics Clin. Appl. 5:383-96 (2011)). The heat shock protein 90 inhibitor, 17-desmethoxy-17-N,N-dimethylaminoethylamino-geldanamycin (17-DMAG), was dissolved in DMSO (100 μM stock). Based on prior IC50 measurements, the RPMI-8226 cells were treated with 100 nM 17-DMAG for 24 hours, and 8226/LR5 cells were treated with 50 nM 17-DMAG. Cells (n=10^6) were lysed using in aqueous 100 mM ammonium bicarbonate containing 8M urea for protein denaturation. Protein concentrations were measured by Bradford assays; consistent aliquots of total protein (380 ng) were injected for LC-MRM, and the same solutions were used for DI-MRM. Digestion, addition of SIS peptides, and mass spectrometry sample preparation were performed as described for standard proteins.
Calculation of Correction Factors to Account for Interference in DI MRM. […] To evaluate the ability to eliminate these contributions, correction factors were calculated based on LC-MRM data using the following set of equations (Equations 1 and 2): […]

[1] = system: heat shock proteins (HSPs) in RPMI-8226 multiple myeloma cells; assay: LC-MRM quantification of HSP expression before and 24 hours after 17-DMAG (Example 1); format: cell-based, human; conditions: 106 nM 17-DMAG
Method: Monitoring HSPs in multiple myeloma cells. RPMI-8226 multiple myeloma cells were cultured in suspension as described above with the addition of 100 units/mL penicillin/streptomycin. Stock 17-dimethylaminoethylamino-17-demethoxy-geldanamycin (17-DMAG) was dissolved in DMSO at a concentration of 10 mM. Based on prior IC50 measurements, the RPMI-8226 cells were treated with 106 nM 17-DMAG for 24 hours.
RPMI-8226 cells (n=10^6) were lysed using […] aqueous 8M urea with 100 mM ammonium bicarbonate. Protein concentration was measured by the Bradford assay and 0.38 μg of protein (equivalent to 3,750 cells) was injected for LC-MRM analysis of control and drug-treated samples. The proteins were reduced with 2 mM TCEP, alkylated with 20 mM IAA, and digested overnight in solution with trypsin at 37° C. Corresponding stable-isotope-labeled internal standard peptides were added to the samples after digestion. Then, peptides were extracted using pipette tips packed with C18 reversed-phase resin (Ziptip, Millipore; Billerica, Mass.) and concentrated to dryness by vacuum centrifugation (Speedvac, Thermo), and resuspended in aqueous 2% ACN with 0.1% formic acid prior to MS. LC-MRM was performed as described above. Quantification is achieved by using the sum of the peak areas for all detected transitions using QuanBrowser (Xcalibur, Thermo, San Jose, Calif.) or Skyline. The ratio of peak area of the endogenous peptide over corresponding internal standard was calculated for each peptide in the sample to enable absolute and relative quantification. Relative protein expression after treatment was normalized to the pretreatment control for each cell line and plotted to show the change in expression after drug treatment. Bubble plots were created using the SigmaPlot 10 (SPSS).

HSP70 isoform 1 (HSP71) = assay: LC-MRM pharmacodynamic assay of HSP90 inhibition in melanoma cell lines; format: cell-based; conditions: 300 nM, 0-48 hours; naïve, intrinsically resistant and acquired resistant cell lines
Method: Proteomics Sample Preparation. Proteins were extracted as described for Western Blotting and processed as described in (Remily-Wood et al., Proteomics Clin. App. 5:383-96 (2011)).
Liquid chromatography, multiple reaction monitoring mass (LC-MRM) spectrometry (LC MRM) analysis. LC-MRM was performed as described in (Remily-Wood et al., Proteomics Clin. App. 5:383-96 (2011)). Protein expression was determined using the ratio of peak area of the native peptide to corresponding internal standard; normalization of tissue results was performed using GAPDH to control for cellularity (Table 9). Data were then normalized to the pretreatment (cell lines) or vehicle controls (tissue) and plotted to show the changes in expression after drug treatment.

[2] = 24 hrs vs. control, all LC-MRM transitions, interference-corrected
[3] = 24 hrs vs. control, noise corrected, only transitions below 40% interference

Structure (SMILES): CO[C@H]1/C=C\C=C(/C)C(=O)NC2=CC(=O)C(NCCN(C)C)=C(C[C@@H](C)C[C@H](OC)[C@H](O)[C@@H](C)/C=C(\C)[C@@H]1OC(N)=O)C2=O [17-DMAG, 17-Dimethylaminoethylamino-17-demethoxygeldanamycin]
- HSP90α Fold Change, DI-MRM (HSPs in RPMI-8226 cells; 24 hrs after treatment vs. control, ALLFVPR y3-y6 (All LC-MRM Transitions)): 1.86
- CDC37 Fold Change, DI-MRM (HSPs in RPMI-8226 cells; [2]): 1.08
- HS90A Fold Change, DI-MRM (HSPs in RPMI-8226 cells; [2]): 1.86
- HS90B Fold Change, DI-MRM (HSPs in RPMI-8226 cells; [2]): 1.46
- HSP7C Fold Change, DI-MRM (HSPs in RPMI-8226 cells; [2]): 1.52
- HSP7E Fold Change, DI-MRM (HSPs in RPMI-8226 cells; [2]): 0.87
- HSP71 Fold Change, DI-MRM (HSPs in RPMI-8226 cells; [2]): 6.10
- HSP74 Fold Change, DI-MRM (HSPs in RPMI-8226 cells; [2]): 1.22
- HSPA5 Fold Change, DI-MRM (HSPs in RPMI-8226 cells; [2]): 3.43
- CDC37 Fold Change, DI-MRM (HSPs in RPMI-8226 cells; [3]): 1.20
- HS90A Fold Change, DI-MRM (HSPs in RPMI-8226 cells; [3]): 1.85
- HS90B Fold Change, DI-MRM (HSPs in RPMI-8226 cells; [3]): 1.46
- HSP7C Fold Change, DI-MRM (HSPs in RPMI-8226 cells; [3]): 1.84
- HSP7E Fold Change, DI-MRM (HSPs in RPMI-8226 cells; [3]): 0.81
- HSP71 Fold Change, DI-MRM (HSPs in RPMI-8226 cells; [3]): 6.10
- HSP74 Fold Change, DI-MRM (HSPs in RPMI-8226 cells; [3]): 1.37
- HSPA5 Fold Change, DI-MRM (HSPs in RPMI-8226 cells; [3]): 2.53
- HSP90α Fold Change, DI-MRM (HSPs in RPMI-8226 cells; 24 hrs vs. control, y3 (Least Interference)): 2.96
- HSP90α Fold Change, DI-MRM (HSPs in RPMI-8226 cells; 24 hrs vs. control, y3-y5 (DI-MRM Interference-Corrected)): 1.85
- HSP90α Fold Change, DI-MRM (HSPs in RPMI-8226 cells; 24 hrs vs. control, y3-y5 (Selected Transitions)): 1.85
- HSP90α Fold Change, DI-MRM (HSPs in RPMI-8226 cells; 24 hrs vs. control, y3-y6 (DI-MRM Interference-Corrected)): 1.87
- H90B2 Post-Treatment [1]: 25.3 amol/cell
- HSPB3 Post-Treatment ([1]; peptide ADLINNLR): 0.14 amol/cell
- HSP74 Post-Treatment ([1]; peptide AFSDPFVEAEK): 0.89 amol/cell
- HS90B Post-Treatment ([1]; peptide ALLFIPR): 14.5 amol/cell
- HS90A Post-Treatment ([1]; peptide ALLFVPR): 20.9 amol/cell
- HSP72 Post-Treatment ([1]; peptide EIAEAYLGGK): 0.39 amol/cell
- HSP7C Post-Treatment ([1]; peptide GTLDPVEK): 14.9 amol/cell
- CDC37 Post-Treatment ([1]; peptide LQAEAQQLR): 0.91 amol/cell
- HSP71 Post-Treatment ([1]; peptide NQVALNPQNTVFDAK): 0.051 amol/cell
- GRP78 Post-Treatment ([1]; peptide VEIIANDQGNR): 110 amol/cell
- CDC37 Ratio ([1]; post- vs pre-treatment): 1.07
- GRP78 Ratio ([1]; post- vs pre-treatment): 2.25
- H90B2 Ratio ([1]; post- vs pre-treatment): 1.57
- HS90A Ratio ([1]; post- vs pre-treatment): 1.87
- HS90B Ratio ([1]; post- vs pre-treatment): 1.84
- HSP7C Ratio ([1]; post- vs pre-treatment): 1.93
- HSP71 Ratio ([1]; post- vs pre-treatment): 3.95
- HSP72 Ratio ([1]; post- vs pre-treatment): 1.21
- HSP74 Ratio ([1]; post- vs pre-treatment): 1.23
- HSPB3 Ratio ([1]; post- vs pre-treatment): 1.25

Structure (SMILES): CC[C@@H](C)Nc1cc(C(=O)N[C@@H]2C[C@H]3CC[C@@H](C2)N3c2ccc(C(=O)C3CC3)cn2)c(C)cc1C(N)=O [XL888, 5-((R)-sec-butylamino)-N1-((1R,3s,5S)-8-(5-(cyclopropanecarbonyl)pyridin-2-yl)-8-azabicyclo[3.2.1]octan-3-yl)-2-methylterephthalamide]
- expression of HSP70 isoform 1 (HSP71) (HSP70 isoform 1 (HSP71)): robust time-dependent increases
